Data set [1] can be described thus: Cytotoxicity against human THP-1 cells assessed as cell growth inhibition. Type of data set: toxicity, cell-based.
Data set [2] in a line: Selectivity index, ratio of CC50 for cytotoxicity against human THP-1 cells to IC50 for antileishmanial activity against Leishmania donovani infected in human THP-1 cells. It is filed as toxicity, cell-based. The note with it: read-out: Ratio CC50/IC50.
Data set [3] has as its system Leishmania donovani. Nature of the data set: Antileishmanial activity against Leishmania donovani infected in human THP-1 cells assessed as growth inhibition by intramacrophage assay. It is filed as functional, organism-based.

SMILES strings stand for the structures.

For orientation: CC50 means the concentration at which the toxic effect on the cells reaches its halfway point. Usually IC50 stands for the concentration that gives 50% inhibition. On to `COc1ccc(-c2cnc(NC(=O)c3ccc(O)cc3)n2C)cc1`, for which the CC50 in data set [1] is more than 100 µM. The selectivity ratio in data set [2] was more than 1. In addition, the 50% inhibitory concentration (IC50) in data set [3] was more than 100 µM.

Turning to `COc1ccc(-c2cnc(NC(=O)CCc3ccccc3)n2C)cc1`, in data set [1], the CC50 is more than 100 µM. For the same compound, in data set [2], the selectivity ratio is more than 4.5. The IC50 in data set [3] is 22 µM.

Take `Cn1c(-c2ccc(C#N)cc2)cnc1NC(=O)c1ncc[nH]1`: the half-maximal cytotoxic concentration (CC50) in data set [1] is more than 100 µM. Also, the selectivity ratio in data set [2] is more than 7.1. The IC50 in data set [3] amounted to 14 µM.

Turning to `Cn1c(-c2ccccc2Cl)cnc1NC(=O)c1ccc(F)cc1`, the CC50 in data set [1] is more than 50 µM. Further, in data set [2], the selectivity ratio is more than 3.3. The 50% inhibitory concentration (IC50) in data set [3] came to 15 µM.

Turning to `COc1ccc(CNC(=O)NC(=O)c2ccc(F)cc2)cc1`, in data set [1], the CC50 was more than 50 µM. In addition, the selectivity ratio in data set [2] is more than 1. Besides, the IC50 in data set [3] was more than 50 µM.

With `Cn1c(-c2ccc(C#N)cc2)cnc1NC(=O)c1ccc(F)cc1`, in data set [1], the half-maximal cytotoxic concentration (CC50) was more than 50 µM. The selectivity ratio in data set [2] is more than 1. Moreover, the IC50 in data set [3] is more than 50 µM.

Regarding `Cc1ccc(C(=O)Nc2ncc(-c3ccccc3)n2C)cc1`, the CC50 in data set [1] was more than 50 µM. In addition, in data set [2], the selectivity ratio is more than 20. Besides, the IC50 in data set [3] is 2.4 µM.

Regarding `COc1ccc(-c2cccc(NC(=O)c3ccc(F)cc3)n2)cc1`, the 50% cytotoxic concentration (CC50) in data set [1] is more than 100 µM. The selectivity ratio in data set [2] was more than 1. Further, the half-maximal inhibitory concentration (IC50) in data set [3] was more than 100 µM.

Turning to `COc1ccc(-c2cnc(NC(=O)c3ccc(Cl)cc3)n2C)cc1`, the CC50 in data set [1] is more than 100 µM. Also, the selectivity ratio in data set [2] was more than 12. For the same compound, the IC50 in data set [3] turned out to be 8.1 µM.

As for `COc1cccc(-c2cnc(NC(=O)c3ccc(F)cc3)n2C)c1`, in data set [1], the CC50 was more than 100 µM. Also, the selectivity ratio in data set [2] is more than 1. Also, the half-maximal inhibitory concentration (IC50) in data set [3] was more than 100 µM.

Turning to `Cn1c(-c2cccc(F)c2)cnc1NC(=O)c1ccc(F)cc1`, in data set [1], the CC50 is 58 µM. In addition, the selectivity ratio in data set [2] was determined as 4.8. Besides, in data set [3], the 50% inhibitory concentration (IC50) came to 12 µM.

In the case of `COc1ccc(-c2cnc(NC(=O)C3CCOCC3)n2C)cc1`, the 50% cytotoxic concentration (CC50) in data set [1] was more than 100 µM. For the same compound, the selectivity ratio in data set [2] was more than 1. Besides, the IC50 in data set [3] is more than 100 µM.

Consider `Cn1c(-c2ccccc2[N+](=O)[O-])cnc1NC(=O)c1ccc(F)cc1`, for which the CC50 in data set [1] worked out at 31 µM. In addition, the selectivity ratio in data set [2] was 3.2. In addition, in data set [3], the 50% inhibitory concentration (IC50) is 9.8 µM.

On to `COc1ccc(-c2cnc(NC(=O)c3ccc(F)cc3)n2-c2ccccc2)cc1`, for which the cytotoxic concentration (CC50) in data set [1] stood at 8.8 µM. Moreover, in data set [2], the selectivity ratio was more than 2.9. Also, in data set [3], the concentration for half-maximal inhibition (IC50) worked out at 6.1 µM.

As for `Cn1c(-c2ccc(Br)cc2)cnc1NC(=O)c1ccc(F)cc1`, the half-maximal cytotoxic concentration (CC50) in data set [1] came out at 46 µM. The selectivity ratio in data set [2] is 6.5. Further, the half-maximal inhibitory concentration (IC50) in data set [3] amounted to 7.1 µM.

For `Cn1c(-c2ccccc2)cnc1NC(=O)c1cccc(Cl)c1`, the half-maximal cytotoxic concentration (CC50) in data set [1] is more than 50 µM. Besides, in data set [2], the selectivity ratio is more than 5.9. Further, the IC50 in data set [3] was 8.5 µM.

`Cn1c(-c2cccc([N+](=O)[O-])c2)cnc1NC(=O)c1ccc(F)cc1`: the 50% cytotoxic concentration (CC50) in data set [1] is more than 50 µM. Further, the selectivity ratio in data set [2] is more than 1. The half-maximal inhibitory concentration (IC50) in data set [3] was more than 50 µM.

In the case of `Cc1ccc(C(=O)Nc2ncc(-c3ccccc3)o2)cc1`, the cytotoxic concentration (CC50) in data set [1] came to 26 µM. In addition, the selectivity ratio in data set [2] was determined as 19. For the same compound, the IC50 in data set [3] stood at 1.4 µM.

Turning to `COc1ccc(-c2cnc(NC(=O)c3ccccc3[N+](=O)[O-])n2C)cc1`, the half-maximal cytotoxic concentration (CC50) in data set [1] was more than 50 µM. Further, the selectivity ratio in data set [2] was more than 1. The half-maximal inhibitory concentration (IC50) in data set [3] is more than 50 µM.

Consider `C[C@@H]1[C@H](O)[C@@H](C)/C=C/C=C/C=C/C=C/C=C/C=C/C=C/[C@H](O[C@@H]2O[C@H](C)[C@@H](O)[C@H](N)[C@@H]2O)C[C@@H]2O[C@](O)(C[C@@H](O)C[C@@H](O)[C@H](O)CC[C@@H](O)C[C@@H](O)CC(=O)O[C@H]1C)C[C@H](O)[C@H]2C(=O)O` [AMPHOTERICIN B], for which, in data set [1], the CC50 is 6 µM. Further, in data set [3], the IC50 was determined as 0.12 µM.

As to `CCCCCCCCCCCCCCCCOP(=O)([O-])OCC[N+](C)(C)C` [MILTEFOSINE], the CC50 in data set [1] was more than 20 µM. Besides, in data set [3], the IC50 came to 0.39 µM.

These data come from ChEMBL document CHEMBL5113486, “Hit-to-lead optimization of novel phenyl imidazole carboxamides that are active against Leishmania donovani” (Eur J Med Chem, 2022).
